Reference: patent publication US8877741B2, “Pyrrolidine derivatives, pharmaceutical compositions and uses thereof” (Boehringer Ingelheim International GmbH, priority 2013, dated 2014)

What follows are compounds tested against human ACC2 (Homo sapiens (Human), UniProt O00763) (assay: ACC2 assay, spectrophotometric 384 well assay (NADH-linked kinetic method)). Details: human ACC2 construct lacking the 128 N-terminal amino acids; coupled lactate dehydrogenase/pyruvate kinase reaction, 340 nm, 25° C.
Assay type: biochemical
Method in brief: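 ADP formation was monitored as NADH consumption at 340 nm for 15 min at 25 °C, using baculovirus-expressed human ACC2 missing its first 128 amino acids, with 500 μM ATP and 2000 μM each of acetyl-CoA and NADH (final). IC50 was fitted by non-linear regression on low-control-subtracted slopes.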

human ACC2, sequence (O00763 129-2458): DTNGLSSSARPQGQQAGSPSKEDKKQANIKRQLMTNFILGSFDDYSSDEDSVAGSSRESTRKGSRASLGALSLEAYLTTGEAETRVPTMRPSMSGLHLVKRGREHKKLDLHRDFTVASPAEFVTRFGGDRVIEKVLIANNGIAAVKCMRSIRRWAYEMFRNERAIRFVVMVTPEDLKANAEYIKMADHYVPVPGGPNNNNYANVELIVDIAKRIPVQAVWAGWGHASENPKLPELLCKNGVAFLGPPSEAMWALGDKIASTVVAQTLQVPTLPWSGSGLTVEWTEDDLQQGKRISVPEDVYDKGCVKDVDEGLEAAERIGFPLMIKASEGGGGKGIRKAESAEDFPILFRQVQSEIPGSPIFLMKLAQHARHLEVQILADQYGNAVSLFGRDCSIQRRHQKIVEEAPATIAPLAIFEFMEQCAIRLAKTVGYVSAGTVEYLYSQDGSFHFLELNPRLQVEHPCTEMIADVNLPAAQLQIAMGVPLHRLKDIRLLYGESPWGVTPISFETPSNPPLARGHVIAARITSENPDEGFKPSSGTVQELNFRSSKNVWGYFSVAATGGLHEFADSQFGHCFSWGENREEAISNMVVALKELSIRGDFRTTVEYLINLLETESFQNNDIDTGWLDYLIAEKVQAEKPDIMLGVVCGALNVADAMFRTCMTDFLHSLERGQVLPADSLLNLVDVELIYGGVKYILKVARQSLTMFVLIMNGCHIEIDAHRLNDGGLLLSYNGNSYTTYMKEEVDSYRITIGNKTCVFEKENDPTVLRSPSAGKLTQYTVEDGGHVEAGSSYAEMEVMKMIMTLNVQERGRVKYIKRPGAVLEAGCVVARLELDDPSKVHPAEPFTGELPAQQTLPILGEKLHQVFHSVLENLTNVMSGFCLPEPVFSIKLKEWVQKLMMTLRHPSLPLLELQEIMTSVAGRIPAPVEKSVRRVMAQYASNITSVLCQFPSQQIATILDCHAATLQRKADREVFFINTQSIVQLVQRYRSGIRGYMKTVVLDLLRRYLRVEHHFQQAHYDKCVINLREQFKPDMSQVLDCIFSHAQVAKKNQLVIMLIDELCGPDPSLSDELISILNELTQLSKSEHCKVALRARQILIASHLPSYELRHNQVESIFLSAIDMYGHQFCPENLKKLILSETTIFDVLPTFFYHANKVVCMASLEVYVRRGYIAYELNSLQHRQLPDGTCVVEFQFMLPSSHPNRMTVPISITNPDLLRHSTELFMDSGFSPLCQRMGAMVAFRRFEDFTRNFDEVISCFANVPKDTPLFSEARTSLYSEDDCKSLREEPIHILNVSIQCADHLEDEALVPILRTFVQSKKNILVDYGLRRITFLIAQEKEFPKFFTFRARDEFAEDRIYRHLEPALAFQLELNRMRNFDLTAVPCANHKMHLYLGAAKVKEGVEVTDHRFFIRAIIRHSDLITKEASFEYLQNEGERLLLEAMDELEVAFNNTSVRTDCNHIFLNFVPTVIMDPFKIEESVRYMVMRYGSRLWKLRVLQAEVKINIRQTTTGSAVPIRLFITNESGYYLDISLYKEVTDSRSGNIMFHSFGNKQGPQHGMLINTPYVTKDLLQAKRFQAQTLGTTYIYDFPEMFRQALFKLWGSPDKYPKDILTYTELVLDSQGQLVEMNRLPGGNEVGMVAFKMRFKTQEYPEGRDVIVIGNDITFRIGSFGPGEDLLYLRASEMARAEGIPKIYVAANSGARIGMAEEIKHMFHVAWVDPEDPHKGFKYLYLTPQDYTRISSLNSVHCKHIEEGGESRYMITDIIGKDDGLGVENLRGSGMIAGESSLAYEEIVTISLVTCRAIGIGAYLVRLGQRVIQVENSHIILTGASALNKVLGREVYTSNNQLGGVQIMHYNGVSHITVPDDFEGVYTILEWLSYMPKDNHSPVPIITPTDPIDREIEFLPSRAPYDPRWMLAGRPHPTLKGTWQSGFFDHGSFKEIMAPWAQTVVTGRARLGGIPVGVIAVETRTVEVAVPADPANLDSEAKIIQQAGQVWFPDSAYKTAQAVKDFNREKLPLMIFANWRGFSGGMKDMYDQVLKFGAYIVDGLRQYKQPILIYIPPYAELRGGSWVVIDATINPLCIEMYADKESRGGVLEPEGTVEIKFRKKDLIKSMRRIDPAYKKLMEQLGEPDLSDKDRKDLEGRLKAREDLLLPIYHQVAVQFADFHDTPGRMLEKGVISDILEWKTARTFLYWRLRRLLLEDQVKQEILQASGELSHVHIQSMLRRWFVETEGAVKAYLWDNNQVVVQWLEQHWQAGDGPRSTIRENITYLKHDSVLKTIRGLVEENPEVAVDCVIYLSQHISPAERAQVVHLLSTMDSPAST

| Compound | IC50 [nM] |
| --- | --- |
| CC(=O)N[C@@H](C)c1ccc(O[C@@H]2CCN(c3cccc(N4CCOCC4C)n3)C2)cc1 (stereo partly drawn) [Example 10.49] | 785 |
| CC(=O)N[C@@H](C)c1ccc(O[C@@H]2CCN(c3ccnc(NCC4(O)CCC4)c3F)C2)cc1 [Example 10.50] | 53 |
| CC(=O)N[C@@H](C)c1ccc(O[C@@H]2CCN(c3ccnc(NCC(C)(C)O)c3Cl)C2)cc1 [Example 10.51] | 65 |
| CC(=O)N[C@@H](C)c1ccc(O[C@@H]2CCN(c3ccnc(N4CCC(C)(O)C4)c3F)C2)cc1 (stereo partly drawn) [Example 10.52] | 80 |
| CC(=O)N[C@@H](C)c1ccc(O[C@@H]2CCN(c3ccnc(NCC(C)(C)O)c3F)C2)cc1 [Example 10.53] | 215 |
| CC(=O)N[C@@H](C)c1ccc(O[C@@H]2CCN(c3ccnc(N4CCC(C)(O)C4)c3Cl)C2)cc1 (stereo partly drawn) [Example 10.54] | 114 |
| CC(=O)N[C@@H](C)c1ccc(O[C@@H]2CCN(c3ccnc(NCC4(O)CCC4)c3Cl)C2)cc1 [Example 10.55] | 57 |
| CC(=O)N[C@@H](C)c1ccc(O[C@@H]2CCN(c3ccc(OCC(F)F)cn3)C2)cc1 [Example 11.1, N—((S)-1-(4-((R)-1-(5-(2,2-Difluoroethoxy)pyridin-2-yl)pyrrolidin-3-yloxy)phenyl)ethyl)acetamide] | 510 |
| CC(=O)N[C@@H](C)c1ccc(O[C@@H]2CCN(c3ccc(OCC(F)(F)C(F)F)cn3)C2)cc1 [Example 11.2] | 870 |
| CC(=O)N[C@@H](C)c1ccc(O[C@@H]2CCN(c3ccc(OCCCF)cn3)C2)cc1 [Example 11.3] | 131 |
| C[C@H](NC=O)c1ccc(O[C@@H]2CCN(c3cccc(C(F)(F)F)n3)C2)cc1 [Example 12, N—((S)-1-(4-((R)-1-(6-(Trifluoromethyl)pyridin-2-yl)pyrrolidin-3-yloxy)phenyl)ethyl) formamide] | 888 |
| Cc1nc(N)sc1C(=O)N[C@@H](C)c1ccc(O[C@@H]2CCN(c3ccc(OCC4CC4(F)F)cn3)C2)cc1 (stereo partly drawn) [Example 13, 2-Amino-N—((1S)-1-(4-((3R)-1-(5-((2,2-difluorocyclopropyl)methoxy)pyridin-2-yl)pyrrolidin-3-yloxy)phenyl)ethyl)-4-methylthiazole-5-carboxamide] | 240 |
| COc1c(N2CC[C@@H](Oc3ccc([C@H](C)NC(C)=O)cc3)C2)ccnc1OCC(F)F [Example 14.1, N—((S)-1-(4-((R)-1-(2-(2,2-Difluoroethoxy)-3-methoxypyridin-4-yl)pyrrolidin-3-yloxy)phenyl)ethyl)acetamide] | 58 |
| COc1c(N2CC[C@@H](Oc3ccc([C@H](C)NC(C)=O)cc3)C2)ccnc1OCC1CC1(F)F (stereo partly drawn) [Example 14.2] | 45 |
| CC(=O)N[C@@H](C)c1ccc(O[C@@H]2CCN(c3ccnc(C4CC4)c3F)C2)cc1 [Example 15, N—((S)-1-(4-((R)-1-(2-cyclopropyl-fluoropyridin-4-yl)pyrrolidin-3-yloxy)phenyl)-ethyl)-acetamide] | 245 |
